Tested on: 317291-083-R-J1-PDC complex spheroids, viability
Experiment: Anticancer human tumor 317291-083-R-J1-PDC patient-derived soft tissue sarcoma cell line growth inhibition [GQUAD]
Details: for IC50: curve of first compound; for viability, T/C: stronger effect = lower value
Summary of the method: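 Viability of tumor cells grown as complex spheroids with endothelial and stromal cells, exposed to drug combinations. Top concentration at or near clinical Cmax (else 10 microM), diluted in half-log increments.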

[1] = second compound 0.0316 µM, first compound 0.0316 µM
[2] = second compound 0.0316 µM, first compound 0.1 µM
[3] = second compound 0.0316 µM, first compound 0.316 µM
[4] = second compound 0.0316 µM, first compound 1 µM
[5] = second compound 0.0316 µM, first compound 3.16 µM
[6] = second compound 0.0316 µM, first compound 10 µM
[7] = second compound 0.1 µM, first compound 0.0316 µM
[8] = second compound 0.1 µM, first compound 0.1 µM
[9] = second compound 0.1 µM, first compound 0.316 µM
[10] = second compound 0.1 µM, first compound 1 µM
[11] = second compound 0.1 µM, first compound 3.16 µM
[12] = second compound 0.1 µM, first compound 10 µM
[13] = second compound 0.316 µM, first compound 0.0316 µM
[14] = second compound 0.316 µM, first compound 0.1 µM
[15] = second compound 0.316 µM, first compound 0.316 µM
[16] = second compound 0.316 µM, first compound 1 µM
[17] = second compound 0.316 µM, first compound 3.16 µM
[18] = second compound 0.316 µM, first compound 10 µM
[19] = second compound 1 µM, first compound 0.0316 µM
[20] = second compound 1 µM, first compound 0.1 µM
[21] = second compound 1 µM, first compound 0.316 µM
[22] = second compound 1 µM, first compound 1 µM
[23] = second compound 1 µM, first compound 3.16 µM
[24] = second compound 1 µM, first compound 10 µM
[25] = second compound 3.16 µM, first compound 0.0316 µM
[26] = second compound 3.16 µM, first compound 0.1 µM
[27] = second compound 3.16 µM, first compound 0.316 µM
[28] = second compound 3.16 µM, first compound 1 µM
[29] = second compound 3.16 µM, first compound 3.16 µM
[30] = second compound 3.16 µM, first compound 10 µM
[31] = second compound 10 µM, first compound 0.0316 µM
[32] = second compound 10 µM, first compound 0.1 µM
[33] = second compound 10 µM, first compound 0.316 µM
[34] = second compound 10 µM, first compound 1 µM
[35] = second compound 10 µM, first compound 3.16 µM
[36] = second compound 10 µM, first compound 10 µM
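Note: spheroids exposed to compounds for one week before readout.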
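Throughout, for viability, T/C: percent viability relative to DMSO vehicle wells taken as 100%.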

For `O=C(c1cc(Cc2n[nH]c(=O)c3ccccc23)ccc1F)N1CCN(C(=O)C2CC2)CC1` + Cc1[nH]c2ccc(F)cc2c1-c1nc2c3cccnc3c3ncccc3c2[nH]1, the IC50 (second compound 0.0316 µM) was over 10 µM, the IC50 (second compound 0.1 µM) was over 10 µM and the IC50 (second compound 0.316 µM) was over 10 µM. The IC50 (second compound 1 µM) was over 10 µM, the IC50 (second compound 3.16 µM) was 8.8 µM and the IC50 (second compound 10 µM) was over 10 µM. The viability, T/C [1] was 97.2%, the viability, T/C [2] was 92.2% and the viability, T/C [3] was 91.8%. It also gave a viability, T/C [4] of 91.6%, a viability, T/C [5] of 80.6% and a viability, T/C [6] of 69.5%. It also gave a viability, T/C [7] of 108%, a viability, T/C [8] of 116% and a viability, T/C [9] of 93.4%. It also gave a viability, T/C [10] of 94.8%, a viability, T/C [11] of 92.8% and a viability, T/C [12] of 65.3%. For the same compound, the viability, T/C [13] was 101%, the viability, T/C [14] was 111% and the viability, T/C [15] was 101%. It also gave a viability, T/C [16] of 103%, a viability, T/C [17] of 92.8% and a viability, T/C [18] of 52.1%. For the same compound, the viability, T/C [19] was 109%, the viability, T/C [20] was 112% and the viability, T/C [21] was 91.5%. For the same compound, the viability, T/C [22] was 93.8%, the viability, T/C [23] was 90.3% and the viability, T/C [24] was 60.2%. The viability, T/C [25] was 81.6%, the viability, T/C [26] was 82.9% and the viability, T/C [27] was 72.8%. The viability, T/C [28] was 75.2%, the viability, T/C [29] was 69.6% and the viability, T/C [30] was 47.2%. For the same compound, the viability, T/C [31] was 105%, the viability, T/C [32] was 84.4% and the viability, T/C [33] was 96.3%. For the same compound, the viability, T/C [34] was 81.8%, the viability, T/C [35] was 98% and the viability, T/C [36] was 58.6%.

`O=C(c1cc(Cc2n[nH]c(=O)c3ccccc23)ccc1F)N1CCN(C(=O)C2CC2)CC1` + CN(C)c1ccc(Nc2c3ccc(NC(=O)CCN4CCCC4)cc3nc3cc(NC(=O)CCN4CCCC4)ccc23)cc1 showed an IC50 (second compound 0.0316 µM) of 8.52 µM, an IC50 (second compound 0.1 µM) of 8.53 µM and an IC50 (second compound 0.316 µM) of 9.79 µM. The IC50 (second compound 1 µM) was under 0.0316 µM, the IC50 (second compound 3.16 µM) was under 0.0316 µM and the IC50 (second compound 10 µM) was under 0.0316 µM. For the same compound, the viability, T/C [1] was 107%, the viability, T/C [2] was 88.7% and the viability, T/C [3] was 93.2%. For the same compound, the viability, T/C [4] was 92.8%, the viability, T/C [5] was 84.9% and the viability, T/C [6] was 44.1%. For the same compound, the viability, T/C [7] was 111%, the viability, T/C [8] was 93.4% and the viability, T/C [9] was 101%. For the same compound, the viability, T/C [10] was 96.7%, the viability, T/C [11] was 76.3% and the viability, T/C [12] was 45.8%. For the same compound, the viability, T/C [13] was 84.4%, the viability, T/C [14] was 83.3% and the viability, T/C [15] was 83.8%. The viability, T/C [16] was 67.6%, the viability, T/C [17] was 73.5% and the viability, T/C [18] was 48%. It also gave a viability, T/C [19] of 55%, a viability, T/C [20] of 36.5% and a viability, T/C [21] of 44.2%. The viability, T/C [22] was 48.1%, the viability, T/C [23] was 52.3% and the viability, T/C [24] was 45.8%. It also gave a viability, T/C [25] of 34.7%, a viability, T/C [26] of 27.9% and a viability, T/C [27] of 22.8%. It also gave a viability, T/C [28] of 21.4%, a viability, T/C [29] of 16.6% and a viability, T/C [30] of 15.9%. For the same compound, the viability, T/C [31] was 5%, the viability, T/C [32] was 12.6% and the viability, T/C [33] was 14.9%. For the same compound, the viability, T/C [34] was 11.7%, the viability, T/C [35] was 31.9% and the viability, T/C [36] was 6.71%.

`Cc1cccc(N(C)C(=O)C2C(O)CCN2c2nc(C)cc(C(F)(F)F)c2C#N)c1` (stereo not drawn) + CN(C)c1ccc(Nc2c3ccc(NC(=O)CCN4CCCC4)cc3nc3cc(NC(=O)CCN4CCCC4)ccc23)cc1 was tested, and the IC50 (second compound 0.0316 µM) was over 10 µM, the IC50 (second compound 0.1 µM) was over 10 µM and the IC50 (second compound 0.316 µM) was over 10 µM. It also gave an IC50 (second compound 1 µM) of 0.548 µM, an IC50 (second compound 3.16 µM) of under 0.0316 µM and an IC50 (second compound 10 µM) of under 0.0316 µM. The viability, T/C [1] was 101%, the viability, T/C [2] was 107% and the viability, T/C [3] was 93.1%. For the same compound, the viability, T/C [4] was 91.9%, the viability, T/C [5] was 85.5% and the viability, T/C [6] was 78.1%. It also gave a viability, T/C [7] of 107%, a viability, T/C [8] of 99.2% and a viability, T/C [9] of 116%. For the same compound, the viability, T/C [10] was 84.8%, the viability, T/C [11] was 75.9% and the viability, T/C [12] was 83.9%. It also gave a viability, T/C [13] of 103%, a viability, T/C [14] of 93.3% and a viability, T/C [15] of 79.9%. It also gave a viability, T/C [16] of 62.9%, a viability, T/C [17] of 79.8% and a viability, T/C [18] of 46.5%. The viability, T/C [19] was 68.3%, the viability, T/C [20] was 51.1% and the viability, T/C [21] was 57.4%. It also gave a viability, T/C [22] of 45.1%, a viability, T/C [23] of 42.6% and a viability, T/C [24] of 30%. It also gave a viability, T/C [25] of 29.9%, a viability, T/C [26] of 46.2% and a viability, T/C [27] of 21.3%. The viability, T/C [28] was 25.1%, the viability, T/C [29] was 17.1% and the viability, T/C [30] was 9.2%. It also gave a viability, T/C [31] of 7.38%, a viability, T/C [32] of 11.6% and a viability, T/C [33] of 10.1%. The viability, T/C [34] was 3.67%, the viability, T/C [35] was 3.05% and the viability, T/C [36] was 1.88%.

With `COc1ncnc(C2CC2)c1-c1ncc2cnn(Cc3ccc(-c4nc(C(F)(F)F)cn4C(C)C)cc3)c2n1` + Cc1[nH]c2ccc(F)cc2c1-c1nc2c3cccnc3c3ncccc3c2[nH]1 the IC50 (second compound 0.0316 µM) was over 10 µM, the IC50 (second compound 0.1 µM) was over 10 µM and the IC50 (second compound 0.316 µM) was 0.2 µM. The IC50 (second compound 1 µM) was under 0.0316 µM, the IC50 (second compound 3.16 µM) was under 0.0316 µM and the IC50 (second compound 10 µM) was under 0.0316 µM. For the same compound, the viability, T/C [1] was 110%, the viability, T/C [2] was 77.8% and the viability, T/C [3] was 84.5%. For the same compound, the viability, T/C [4] was 72.2%, the viability, T/C [5] was 64.3% and the viability, T/C [6] was 92.3%. For the same compound, the viability, T/C [7] was 85.7%, the viability, T/C [8] was 96.5% and the viability, T/C [9] was 68.3%. The viability, T/C [10] was 63.7%, the viability, T/C [11] was 93.4% and the viability, T/C [12] was 65%. It also gave a viability, T/C [13] of 63.3%, a viability, T/C [14] of 52.8% and a viability, T/C [15] of 50.4%. It also gave a viability, T/C [16] of 37.2%, a viability, T/C [17] of 46% and a viability, T/C [18] of 35.2%. For the same compound, the viability, T/C [19] was 41.4%, the viability, T/C [20] was 37.9% and the viability, T/C [21] was 35.3%. It also gave a viability, T/C [22] of 41.2%, a viability, T/C [23] of 40.5% and a viability, T/C [24] of 39.8%. The viability, T/C [25] was 35.1%, the viability, T/C [26] was 27.6% and the viability, T/C [27] was 27.1%. It also gave a viability, T/C [28] of 23.3%, a viability, T/C [29] of 23.2% and a viability, T/C [30] of 30.5%. It also gave a viability, T/C [31] of 35.8%, a viability, T/C [32] of 35.8% and a viability, T/C [33] of 31.1%. The viability, T/C [34] was 33.8%, the viability, T/C [35] was 33.5% and the viability, T/C [36] was 28.3%.

From PubChem BioAssay AID2060497 (Molecular Pharmacology Branch, DTP, NCI, 2025)
